We go through 13 molecules from patent US5208263A, “Anti-androgen compounds” (Arch Development Corporation, priority 1989, dated 1993).

For test [1], the target named is T1, androgen receptor of rat ventral prostate (Rattus norvegicus, UniProt P15207).
T1 construct: androgen receptors isolated, as described in Chang, C., et al., J. Steroid Biochem., 27:123 (1987), from rat ventral prostate; from tissue; host or cells: rat ventral prostate
T1 sequence (P15207 1-902): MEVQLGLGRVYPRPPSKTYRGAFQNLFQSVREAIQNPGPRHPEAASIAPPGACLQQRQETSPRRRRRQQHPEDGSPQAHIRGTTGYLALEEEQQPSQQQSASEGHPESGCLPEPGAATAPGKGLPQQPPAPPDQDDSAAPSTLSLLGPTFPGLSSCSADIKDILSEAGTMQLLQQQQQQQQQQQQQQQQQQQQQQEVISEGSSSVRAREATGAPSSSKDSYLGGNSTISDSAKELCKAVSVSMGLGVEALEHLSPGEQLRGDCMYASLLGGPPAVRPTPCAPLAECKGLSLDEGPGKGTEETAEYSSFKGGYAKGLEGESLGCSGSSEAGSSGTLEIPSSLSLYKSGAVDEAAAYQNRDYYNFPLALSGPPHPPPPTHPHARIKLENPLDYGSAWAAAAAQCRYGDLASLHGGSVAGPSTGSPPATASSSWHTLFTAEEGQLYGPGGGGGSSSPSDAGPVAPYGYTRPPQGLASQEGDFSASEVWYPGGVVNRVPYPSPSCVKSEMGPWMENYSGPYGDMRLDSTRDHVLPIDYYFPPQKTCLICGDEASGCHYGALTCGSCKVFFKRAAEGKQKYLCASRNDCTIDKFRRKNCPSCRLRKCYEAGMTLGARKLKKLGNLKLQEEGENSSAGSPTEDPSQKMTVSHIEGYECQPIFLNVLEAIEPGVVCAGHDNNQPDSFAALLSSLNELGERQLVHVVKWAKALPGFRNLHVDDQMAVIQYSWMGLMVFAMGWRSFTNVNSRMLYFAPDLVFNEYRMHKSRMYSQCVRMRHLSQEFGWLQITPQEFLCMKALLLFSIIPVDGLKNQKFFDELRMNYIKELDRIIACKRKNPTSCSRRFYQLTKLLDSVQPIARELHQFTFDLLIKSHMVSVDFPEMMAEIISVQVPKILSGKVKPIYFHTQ
Description: Competition with [3H]R1881 for androgen receptor binding, cell-free assay (Table 1).

The subject of test [2] is ventral prostate. The settings on record: rats; Chang et al. 1987; cited from earlier work.
Test [3] relates to androgen receptors. The settings on record: Chang et al. 1987; cited from earlier work.
The mark [4] stands for this setting: in parentheses, relative to R1881 = 100.00, cell-free, rat ventral prostate.

Where two headings read alike, the source gives them in different places.

As to “1-[2-(9(or 10)-methyl-9,10-dihydrophenanthryl)]-1-ethanol [Compound 11]”, in test [1], the “Relative receptor binding activity (RBA)” value is 0.29. Further, the IC50 in test [1] (read-out: IC50 (concentration of test compound needed to show 50% inhibition of [3H]R1881 binding), [3H]R1881 (17a-methyltrienolone) binding, androgen receptor of rat ventral prostate, cell-free) was 6.8 µM.

For the molecule `O=C1CCc2c1ccc1c2CCc2ccccc2-1` (racemic) [Compound 6, 6,7,16,17-Tetrahydro-15H-cyclopenta[a]phenanthren-17-one], in test [1], the IC50 was 17.8 µM and the “Relative receptor binding activity (RBA)” value worked out at 0.11.

Molecule `c1cc2c(c3c1CCCC3)CCCC2` [1,2,3,4,5,6,7,8-octahydro-phenanthrene, reference compound] yielded an IC50 in test [1] of 200 µM. Also, the “Relative receptor binding activity (RBA)” value in test [1] (setting [4]) was 0.01.

As to `c1ccc2c(c1)CCc1ccccc1-2` [9,10-dihydrophenanthrene, reference compound], in test [2], the “inhibition of growth of the ventral prostate” value was “inhibits the growth of the ventral prostate in rats”. In test [1], this molecule returned an IC50 of 10 µM. Further, the “Relative receptor binding activity (RBA)” value in test [1] (setting [4]) came out at 0.20. The “interaction with androgen receptors in cell-free systems” value in test [3] is given as “interacts with androgen receptors in cell-free systems”.

Regarding `c1ccc2c(c1)CCc1ccccc1C2` [10,11-dihydro-5H-dibenzo-[a,d]cycloheptene, reference compound], in test [1], the IC50 stood at 60 µM. In test [1] (setting [4]), the “Relative receptor binding activity (RBA)” value came to 0.03.

Regarding `OC1CCc2c1ccc1c2CCc2ccccc2-1` (stereo not shown) [Compound 7, 6,7,16,17-tetrahydro-15H-cyclo-penta[a]phen-anthren-17-ol], in test [1], the IC50 amounted to 4.2 µM and the “Relative receptor binding activity (RBA)” value is recorded as 0.48.

The molecule `CC(O)c1ccc2c(c1)CCc1ccccc1-2` (stereo not shown) [Compound 9, 1-[2-(9,10-Dihydrophenanthryl)]-1-ethanol] came in with an IC50 in test [1] of 2.6 µM. The “Relative receptor binding activity (RBA)” value in test [1] (setting [4]) was determined as 0.77.

In test [1], `Oc1ccc2c(c1)CCc1ccccc1-2` [Compound 13, 2-Hydroxy-9,10-dihydrophenanthrene] returned an IC50 of 7.9 µM. For the same molecule, in test [1] (setting [4]), the “Relative receptor binding activity (RBA)” value was determined as 0.25.

In turn, `O=C1CCc2c(ccc3c2CCc2c(O)cccc2-3)C1` [Compound 22, 4'-oxo-7,8-cyclohexeno-9,10-dihydrophenanthren-1-ol] returned an IC50 in test [1] of 1.3 µM. The “Relative receptor binding activity (RBA)” value in test [1] (setting [4]) came out at 1.53.

In the case of `O=C1CCc2c(ccc3c2ccc2c(O)cccc23)C1` [Compound 25, 4'-oxo-7,8-cyclohexenophenanthren-1-ol], in test [1], the IC50 is more than 100 µM and the “Relative receptor binding activity (RBA)” value is less than 0.02.

In the case of `OCCc1ccc2c(c1)CCc1ccccc1-2` [Compound 26, 2-(2'-hydroxyethyl)-9,10-dihydrophenanthrene], the IC50 in test [1] was 3.6 µM. For the same molecule, the “Relative receptor binding activity (RBA)” value in test [1] (setting [4]) came out at 0.56.

`OCC(O)c1ccc2c(c1)CCc1ccccc1-2` (stereo not shown) [Compound 27, 2-(2',3'-dihydroxyethyl)-9,10-dihydrophenanthrene] showed an IC50 in test [1] of 47.9 µM. Besides, the “Relative receptor binding activity (RBA)” value in test [1] (setting [4]) amounted to 0.04.

Turning to `c1ccc2c(c1)ccc1ccccc12` [phenanthrene, reference compound], the IC50 in test [1] turned out to be 800 µM. For the same molecule, in test [1] (setting [4]), the “Relative receptor binding activity (RBA)” value is 0.0025.
